Consider 1 molecule from patent US10934255B2, “Nrf and HIF activators/HDAC inhibitors and therapeutic methods using the same” (THE BOARD OF TRUSTEES OF THE UNIVERSITY OF ILLINOIS, priority 2017, dated 2021).

Series [1] can be described thus: Blood brain barrier test: tissue concentration after iv injection. Type of series: in vivo, Mouse. Particulars: after 20 minutes. How it is done:
Tests were conducted to determine the ability of a present compound to cross the blood brain barrier (BBB). In particular, Mouse 1 was injected iv with about 7.5 mg/kg of compound II-ING-6 in DMSO. Mouse 2—about 10 mg/kg. Blood, brain, and liver were collected after 20 minutes (Table 4).

Another series deals with C57BL/6 mice. Nature of the series: Behavioral screening in the SmartCube (SC) platform. It counts as in vivo. Particulars: 50 mg/kg ip. How it is done:
FIG. 4 contains the SC signature of II-ING-6 (50 mg/kg, ip) showing anxiolytic activity.
Another evidence that II-ING-6 is can cross the BBB was obtained from SC (Frontiers in Neuroscience 2011, 5 (103), p. 1-4) experiment. SC provides a sequence of challenges to mice and captures more than 2,000 features during a 1 hour testing session. These features are analyzed with computer algorithms and data mining approaches to automate the study of mice behavior and compared to a database of behavioral signatures obtained using a set of diverse reference compounds, including antidepressants, cognitive enhancers, antipsychotics, and anxiolytics. In this assay, C57BL/6 mice were injected with compound II-ING-6 at 50 mg/kg (ip).

The structures appear in SMILES notation. Where two headings read alike, the source gives them in different places.

`O=C(NO)c1ccc(CN2CCc3ccc(Cl)cc32)cc1` [II-ING-6, 4-((6-Chloroindolin-1-yl)methyl)-N-hydroxybenzamide]: the concentration at 20 min in series [1] (brain, Mouse 1, iv 7.5 mg/kg in DMSO, read-out: Concentration, Brain) came out at 1060 ng/g; in series [1] (brain, Mouse 2, iv 10 mg/kg in DMSO, read-out: Concentration, Brain), 1760 ng/g; in series [1] (liver, Mouse 1, iv 7.5 mg/kg in DMSO, read-out: Concentration, Liver), 501 ng/g; in series [1] (liver, Mouse 2, iv 10 mg/kg in DMSO, read-out: Concentration, Liver), 1030 ng/g; in series [1] (plasma, Mouse 1, iv 7.5 mg/kg in DMSO, read-out: Concentration, Plasma) it was 256 ng/g; in series [1] (plasma, Mouse 2, iv 10 mg/kg in DMSO, read-out: Concentration, Plasma), 387 ng/g. In addition, the “SC signature (behavioral class)” value with C57BL/6 mice is listed as “anxiolytic effect”.
